Results from patent publication US8637516B2 (IRM LLC, priority 2010, dated 2014).
pIC50: −log10 of the molar value.

Legend:
[1] = biological target: T1, Ba/F3 cells transformed with human Tel-TrkA (Homo sapiens, UniProt P04629); assay: Proliferation of Ba/F3 cells transformed with human Tel-TrkA (Ba/F3 Tel-TrkA); assay type: cell-based; details: Table 1; 48 hours, Bright Glo luminescence; read-out: Ba/F3 Tel-TrkA
T1 construct: expressed in transfected cells; host or cells: Ba/F3 murine hematopoietic progenitor cells (luciferase expressing); the other entry of the earlier key: ETV6 (P41212, Transcription factor ETV6)
T1 sequence (P04629 510-796 limits assumed): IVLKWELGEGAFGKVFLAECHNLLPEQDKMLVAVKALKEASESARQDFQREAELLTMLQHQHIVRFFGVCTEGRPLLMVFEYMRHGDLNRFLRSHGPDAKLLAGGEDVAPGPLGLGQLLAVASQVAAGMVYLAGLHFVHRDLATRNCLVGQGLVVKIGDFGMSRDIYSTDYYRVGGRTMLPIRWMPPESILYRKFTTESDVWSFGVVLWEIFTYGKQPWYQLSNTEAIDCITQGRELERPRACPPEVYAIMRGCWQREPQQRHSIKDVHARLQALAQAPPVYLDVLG
Source text: (§1) Compound dilutions were made in 384 well plates.
(§2) The emited luminiscence is quantified using ViewLux (PerkinElmer).

parental Ba/F3 cells = assay: Proliferation of parental (untransformed, wt) Ba/F3 cells (BAF3/WT); assay type: cell-based, murine; details: Mus musculus, Table 1, parental cells with IL3, 48 hours
Protocol: as §1
Compounds were tested for their ability to inhibit the proliferation of wt Ba/F3 cells and Ba/F3 cells transformed with constitutively expressed luciferase reporter and BCR-ABL or Tel-FMS or other Tel fusion kinases (EGFR, JAK2, ALK, BMX, FGFR3, FGFR4, FGR2, FLT1, FLT3, IGF1R, INSR, KDR, KIT, LCK, LYN, MEK, MET, PDGFRα, PDGFRβ, RET, RON, ROS, SRC, SYK, TIE and TYRO) or BRafV600E. Parental Ba/F3 cells were maintained in media containing recombinant mouse IL3 and the kinase transformed Ba/F3 cells were maintained in media without IL-3. 7.5 nl of compounds were spotted to each well of 1536-well assay plates by Liquid handling System Echo 555 (Labcyte). 700 cells were then plated into each well of the assay plates in 7 uL culture media per well and compounds were tested at 0.17 nM to 10 uM in 3-fold serial dilutions. The cells were then incubated for 48 hours at 37° C. 3 uL of Bright-Glo® (Promega) was added to each well and the plates were read using ViewLux (PerkinElmer).
as §2

pIC50 [1] | SMILES | pIC50 (parental Ba/F3 cells)
6.88 | CO/N=C(/N)c1cnc2ccc(N3CCC[C@@H]3c3cccc(F)c3)nn12 [X-228, (R)-6-(2-(3-fluorophenyl)pyrrolidin-1-yl)-N′-methoxyimidazo[1,2-b]pyridazine-3-carboximidamide] | < 5.00
6.93 | O=C(NCC1CCCCC1)c1cnc2ccc(N3CCC[C@@H]3c3cccc(F)c3)nn12 [X-95] | < 5.00
7.70 | O=C(NC1CCC1)c1cnc2ccc(N3CCC[C@@H]3c3cccc(F)c3)nn12 [X-46] | < 5.00
6.72 | O=C(NCCN1CCCC1=O)c1cnc2ccc(N3CCC[C@@H]3c3cccc(F)c3)nn12 [X-86] | < 5.00
6.98 | [2H]C1([2H])C(c2cccc(F)c2)N(c2ccc3ncc(C(N)=O)n3n2)C([2H])([2H])C1([2H])[2H] (stereo not shown) [X-12] | < 5.00
8.15 | O=C(NCCF)c1cnc2ccc(N3CCC[C@@H]3c3cccc(F)c3)nn12 [X-96] | < 5.00
7.72 | CC(C)S(=O)(=O)N1CCC(NC(=O)c2cnc3ccc(N4CCC[C@@H]4c4cccc(F)c4)nn23)CC1 [X-32] | < 5.00
7.89 | NC(=O)c1cnc2ccc(N3CC=C[C@@H]3c3cccc(F)c3)nn12 [X-15, (R)-6-(2-(3-fluorophenyl)-2,5-dihydro-1H-pyrrol-1-yl)imidazo[1,2-b]pyridazine-3-carboxamide] | 5.14
7.77 | CCS(=O)(=O)N1CCC(NC(=O)c2cnc3ccc(N4CCC[C@@H]4c4cccc(F)c4)nn23)CC1 [X-27] | < 5.00
6.62 | NS(=O)(=O)N1CCC(NC(=O)c2cnc3ccc(N4CCC[C@@H]4c4cccc(F)c4)nn23)CC1 [X-29, (R)-6-(2-(3-fluorophenyl)pyrrolidin-1-yl)-N-(1-sulfamoylpiperidin-4-yl)imidazo[1,2-b]pyridazine-3-carboxamide] | < 5.00
8.10 | O=C(NC1CCCOC1)c1cnc2ccc(N3CCC[C@@H]3c3cccc(F)c3)nn12 (stereo partly shown) [X-97] | < 5.00
7.10 | NC(=O)c1cnc2ccc(N3CCCC[C@@H]3c3cccc(F)c3)nn12 [X-19] | < 5.00
8.52 | O=C(NCCO)c1cnc2ccc(N3C[C@@H](F)C[C@@H]3c3cccc(F)c3)nn12 [X-119] | < 5.00
7.46 | O=C(NCC(F)(F)C(F)(F)F)c1cnc2ccc(N3CCC[C@H]3c3cccc(F)c3)nn12 [X-60] | < 5.00
7.85 | CC(C)NC(=O)c1cnc2ccc(N3CCC[C@@H]3c3cccc(F)c3)nn12 [X-39] | < 5.00
7.04 | O=C(NCCC1CCCO1)c1cnc2ccc(N3CCC[C@@H]3c3cccc(F)c3)nn12 (stereo partly shown) [X-23] | < 5.00
6.93 | NCC(=O)Nc1cnc2ccc(N3CCC[C@@H]3c3cccc(F)c3)nn12 [X-193] | < 5.00
7.51 | O=C(NOCCO)c1cnc2ccc(N3CCC[C@@H]3c3cccc(F)c3)nn12 [X-147] | < 5.00
7.20 | [2H]C1([2H])C(c2cccc(F)c2)N(c2ccc3ncc(C(=O)OCC)n3n2)C([2H])([2H])C1([2H])[2H] (stereo not shown) [X-161] | < 5.00
6.71 | CCOC(=O)c1cnc2ccc(N3C[C@@H](F)C[C@@H]3c3ccc(F)c(F)c3)nn12 [X-239] | < 5.00
6.54 | N#CCC(=O)Nc1cnc2ccc(N3CCC[C@@H]3c3cccc(F)c3)nn12 [X-184] | < 5.00
7.85 | O=C(NCC1CC1)c1cnc2ccc(N3CCC[C@@H]3c3cccc(F)c3)nn12 [X-90] | < 5.00
6.96 | [2H]C1([2H])N(c2ccc3ncc(C(N)=O)n3n2)C([2H])(c2cccc(F)c2)C([2H])([2H])C1([2H])[2H] (stereo not shown) [X-13] | < 5.00
6.79 | N#Cc1ccc(CNC(=O)c2cnc3ccc(N4CCC[C@@H]4c4cccc(F)c4)nn23)cc1 [X-89] | < 5.00
7.89 | O=C(NCC(F)(F)F)c1cnc2ccc(N3CCCC3c3cccc(F)c3)nn12 (stereo not shown) [X-111] | < 5.00
7.72 | NC(=O)NC(=O)c1cnc2ccc(N3CC(F)(F)C[C@@H]3c3cccc(F)c3)nn12 [X-248, (R)-N-carbamoyl-6-(4,4-difluoro-2-(3-fluorophenyl)pyrrolidin-1-yl)imidazo[1,2-b]pyridazine-3-carboxamide] | < 5.00

pIC50 [1] | SMILES | pIC50 (parental Ba/F3 cells)
6.21 | NC(=O)c1cnc2ccc(N3CCOCC3c3cccc(F)c3)nn12 (racemic) [X-16, 6-(3-(3-fluorophenyl)morpholino)imidazo[1,2-b]pyridazine-3-carboxamide] | < 5.00
6.76 | O=C(/C=C/c1cccc(N2CCOCC2)n1)c1cnc2ccc(N3CCC[C@@H]3c3cccc(F)c3)nn12 [X-128] | 5.86
6.54 | O=C(NCCC1CCCCC1)c1cnc2ccc(N3CCC[C@@H]3c3cccc(F)c3)nn12 [X-91] | 5.21
6.14 | O=C(NCc1ccc(N2CC[C@@H](O)C2)nc1)c1cnc2ccc(N3CCC[C@@H]3c3cccc(F)c3)nn12 [X-99] | < 5.00
8.52 | O=C(NCC(F)(F)F)c1cnc2ccc(N3CCC[C@@H]3c3cccc(F)c3)nn12 [X-53] | < 5.00
6.52 | CN(C)CCONC(=O)c1cnc2ccc(N3CCC[C@@H]3c3cccc(F)c3)nn12 [X-146] | < 5.00
6.92 | CC1(C)CCC(CNC(=O)c2cnc3ccc(N4CCC[C@@H]4c4cccc(F)c4)nn23)O1 (stereo partly shown) [X-36] | < 5.00
7.52 | O=C(NC[C@H]1CCCO1)c1cnc2ccc(N3CCC[C@@H]3c3cccc(F)c3)nn12 [X-84] | < 5.00
7.43 | O=C(NC1CCCC1)c1cnc2ccc(N3CCC[C@@H]3c3cccc(F)c3)nn12 [X-48] | < 5.00
7.66 | O=C(NC1CCCCC1)c1cnc2ccc(N3CCC[C@@H]3c3cccc(F)c3)nn12 [X-49] | < 5.03
7.07 | O=C(COc1ccc(F)cc1)Nc1cnc2ccc(N3CCC[C@@H]3c3cccc(F)c3)nn12 [X-26] | < 5.00
7.64 | CCONC(=O)c1cnc2ccc(N3CCC[C@@H]3c3cccc(F)c3)nn12 [X-149] | < 5.00
6.71 | COc1cccc(/C=C/C(=O)c2cnc3ccc(N4CCC[C@@H]4c4cccc(F)c4)nn23)n1 [X-131] | 5.78
8.40 | CCOC(=O)c1cnc2ccc(N3C[C@@H](F)C[C@@H]3c3cccc(F)c3)nn12 [X-165, ethyl 6-((2R,4S)-4-fluoro-2-(3-fluorophenyl)pyrrolidin-1-yl)imidazo[1,2-b]pyridazine-3-carboxylate] | < 5.00
8.70 | CCOC(=O)c1cnc2ccc(N3C[C@@H](F)C[C@@H]3c3cc(F)cc(C#N)c3)nn12 [X-243] | < 5.00
6.08 | CC(=O)N1CC(NC(=O)c2cnc3ccc(N4CCC[C@@H]4c4cccc(F)c4)nn23)C1 [X-64] | < 5.00
7.15 | O=C(NCc1ccc(F)cc1)c1cnc2ccc(N3CCC[C@@H]3c3cccc(F)c3)nn12 [X-47] | < 5.00
6.16 | CC(C)C[C@@H](CO)NC(=O)c1cnc2ccc(N3CCC[C@@H]3c3cccc(F)c3)nn12 [X-104] | < 5.00
7.42 | O=C(CCc1cccc(F)c1)c1cnc2ccc(N3CCC[C@@H]3c3cccc(F)c3)nn12 [X-127, (R)-3-(3-fluorophenyl)-1-(6-(2-(3-fluorophenyl)pyrrolidin-1-yl)imidazo[1,2-b]pyridazin-3-yl)propan-1-one] | < 5.00
7.03 | CCOC(=O)c1cnc2ccc(N3CCC[C@@H]3c3cccc(F)c3)nn12 [X-158, (R)-ethyl 6-(2-(3-fluorophenyl)pyrrolidin-1-yl)imidazo[1,2-b]pyridazine-3-carboxylate] | < 5.00
7.04 | N#Cc1cccc(NC(=O)c2cnc3ccc(N4CCC[C@@H]4c4cccc(F)c4)nn23)c1 [X-65, (R)-N-(3-cyanophenyl)-6-(2-(3-fluorophenyl)pyrrolidin-1-yl)imidazo[1,2-b]pyridazine-3-carboxamide] | < 5.02
6.17 | CN(C)CCNC(=O)c1cnc2ccc(N3CCC[C@@H]3c3cccc(F)c3)nn12 [X-56] | < 5.00
6.90 | CC(C)(C)OC(=O)NCC(=O)Nc1cnc2ccc(N3CCC[C@@H]3c3cccc(F)c3)nn12 [X-192] | < 5.00
7.28 | COC[C@H](C)NC(=O)c1cnc2ccc(N3CCC[C@@H]3c3cccc(F)c3)nn12 [X-54] | < 5.00
– | O=C(NCCF)c1cnc2ccc(N3C[C@@H](F)C[C@@H]3c3cccc(F)c3)nn12 [X-112, 6-((2R,4S)-4-fluoro-2-(3-fluorophenyl)pyrrolidin-1-yl)-N-(2-fluoroethyl)imidazo[1,2-b]pyridazine-3-carboxamide] | 5.26

SMILES | pIC50 [1] | pIC50 (parental Ba/F3 cells)
CCC(=O)c1cnc2ccc(N3CCC[C@@H]3c3cccc(F)c3)nn12 [X-123, (R)-1-(6-(2-(3-fluorophenyl)pyrrolidin-1-yl)imidazo[1,2-b]pyridazin-3-yl)propan-1-one] | 7.01 | < 5.00
